Test results reported in the NIST ThermoML archive (doi:10.1021/je101012n).

Assay: mn = molality of the nth substance listed, in mol/kg
Details: 101 kPa, Liquid, Alternating current cell with electrodes

O=S(=O)([O-])[O-].[Na+].[Na+] [sodium sulfate] + O
electrical conductivity [S/m]
Details	278.15 K	283.15 K	298.15 K	308.15 K	318.15 K	343.15 K	363.15 K
m1 = 0.0001	0.001565	0.001807	0.002576	0.003181	0.003786	0.005401	0.00676
m1 = 0.001	0.01463	0.0168	0.02415	0.0292	0.03475	0.05015	0.0633
m1 = 0.01	0.1296	0.1488	0.2128	0.2575	0.3049	0.4381	0.5474
m1 = 0.1001	1	1.148	1.639	1.986	2.347	3.347	4.17
m1 = 0.1989	1.756	2.022	2.882	3.508	4.153	5.946	7.43
m1 = 0.4999	3.383	3.854	5.47	6.708	7.954	11.39	13.7

O=S(=O)(O)O [sulfuric acid] + O
electrical conductivity [S/m]
Details	278.15 K	283.15 K	298.15 K	308.15 K	318.15 K	343.15 K	363.15 K
m1 = 9.4e-05	0.005493	0.006105	0.007827	0.008931	0.009949	0.01221	0.01367
m1 = 0.000936	0.05201	0.05749	0.07292	0.08174	0.09001	0.1026	0.1058
m1 = 0.00944	0.4321	0.4729	0.5772	0.6319	0.6759	0.7372	0.7698
m1 = 0.09223	3.12	3.444	4.13	4.525	4.885	5.575	6.159
m1 = 0.4664	13.46	14.5	17.37	19.34	20.96	25.62	28.05

[Ba+2].[Cl-].[Cl-] [barium chloride] + O
electrical conductivity [S/m]
Details	278.15 K	283.15 K	298.15 K	308.15 K	318.15 K	343.15 K	363.15 K
m1 = 9.2e-05	0.001632	0.00188	0.002597	0.003085	0.003626	0.005187	0.00644
m1 = 0.0011	0.01799	0.0206	0.02897	0.03508	0.04141	0.05911	0.07372
m1 = 0.00896	0.1386	0.1585	0.2229	0.2681	0.3161	0.4493	0.5593
m1 = 0.1029	1.366	1.553	2.167	2.588	3.034	4.247	4.814
m1 = 0.31	3.657	4.127	5.589	6.794	7.859	10.32	12.51

[Cl-].[Cs+] [cesium chloride] + O
electrical conductivity [S/m]
Details	278.15 K	283.15 K	298.15 K	308.15 K	318.15 K	343.15 K	363.15 K
m1 = 0.000106	0.001018	0.001151	0.001597	0.001917	0.002242	0.003135	0.004007
m1 = 0.00101	0.009529	0.01089	0.0151	0.01817	0.02103	0.0293	0.03658
m1 = 0.01058	0.09738	0.1107	0.1539	0.185	0.2142	0.2972	0.3702
m1 = 0.1009	0.8548	0.9735	1.346	1.614	1.859	2.604	3.107
m1 = 0.4763	3.754	4.256	5.762	6.816	7.917	11.01	13.23
m1 = 1.09	8.303	9.355	12.29	14.25	16.55	22.98	26.87
